{
  "source": "patent US20030176390A1",
  "about": "“Methods of treating insulin resistance syndrome and diabetes” (priority 2001, published 2003)",
  "key": {"[1]": {"experiment": "Insulin tolerance test (3 U/kg s.c.) in insulin resistant Zucker Fatty rats after 3 weeks pretreatment", "format": "in vivo", "parameters": "unit not given here", "protocol": "Measurement of Insulin Sensitivity in Conscious Rats.\nInsulin resistant Zucker Fatty rats or Zucker Diabetic Fatty (ZDF) rats were treated for up to 3 weeks with the test compound orally once daily. Plasma parameters were obtained by retroorbital bleeding during inhalation anaesthesia on respective study days. […] In the case of improvement of insulin sensitivity by the test compound the blood glucose reduction was much more pronounced and prolonged compared to that of the control group."}, "rat adipocytes": {"system": "rat adipocytes", "experiment": "In vitro lipolysis assay (antilipolytic activity in rat adipocytes)", "format": "cell-based", "settings": "Rattus norvegicus, Adipocyte, 1 h; norepinephrine-stimulated lipolysis, glycerol assayed, 60 min; read-out: Lipo ec50", "protocol": "Determination of Antilipolytic Activity in Rat Adipocytes\nIsolation of Adipocytes from Epididymal Fat Pads\nAdipose tissue is removed from anesthetized rats and rinsed twice in incubation medium (2.09 g sodium bicarbonate and 0.04 g EDTA, disodium salt, in 1 L Krebs buffer). Each rat (300-350 g) yields approximately 4 mL of adipose tissue. The adipose tissue (35 mL) is cut into small pieces with scissors and washed with incubation medium (50 mL). The mixture is poured into the barrel of a 50 mL syringe to which is attached a short piece of clamped tubing instead of a needle. The aqueous phase is allowed to drain. A second wash with incubation medium is passed through the syringe. The tissue is added to 50 mL of collagenase solution (collagenase (90 mg), bovine serum albumin (BSA) (500 mg), and 0.1 M calcium chloride solution (1 mL), in incubation medium (50 mL)) in a 1 L bottle. The mixture is shaken in an environmental at 37° C. for about 60 minutes under an atmosphere of 95% oxygen/5% carbon dioxide to effect digestion of the tissue. The dispersed cells are poured through 2 layers of cheese cloth into a 100 mL plastic beaker. The undigested clumps in the cloth are rinsed once with incubation medium (20 mL). The cells in the beaker are centrifuged in 2 plastic tubes for 30 seconds at room temperature at 300 rpm. The aqueous phase is aspirated from beneath the loosely packed layer of floating fat cells and discarded. The adipocytes are gently poured into a 250 mL plastic beaker containing 100 mL of rinse solution (1 g BSA per 100 mL incubation medium). After gentle stirring the centrifugation step is repeated. Another wash with rinse solution follows. The cells are pooled and their volume is estimated with a graduated cylinder. The adipocytes are diluted in twice their volume of assay buffer (incubation medium (120 mL), BSA (1.2 g), pyruvic acid (13 mg)).\nThe assay is performed in 20 mL plastic scintillation vials and the total assay volume is 4.2 mL. Assay buffer (2.5 mL), diluted adipocytes (1.5 mL), and a solution of the compound to be tested (12.3 μL) adenosine agonist (12.3 μl; varying concentration) is incubated in the environmental shaker for 15 minutes, then the reaction is started with norepinephrine solution (41.2 μL) (10 nM, in a carrier solution containing water (100 mL), BSA (4 mg), and 0.1 M EDTA (20 μL))and adenosine deaminase (1 μg/mL, 41.2 μl). After sixty minutes in the shaker the reaction is terminated by putting the vials on ice. […] The hard lipid layer is removed by aspiration and the aqueous layer is assayed for glycerol (400 μl of sample). The positive control is done in the absence of any adenosine agonist, substituting water in place of the solution to be tested."}, "[2]": {"experiment": "Plasma free fatty acids in anaesthetized starved male Wistar rats", "format": "in vivo", "parameters": "unit not given here", "protocol": "Measurement of Plasma Lipdis (Free Fatty Acids, Triglycerides, Cholesterol) in Anaesthetized Rats.\nPlasma lipid levels were assayed in anaesthetized rats. Briefly, rats were anaesthetized with an intraperitoneal injection of pentobarbital sodium (60 mg/kg), tracheotomized, and one jugular vein per rat was cannulated for intravenous administration (bolus injection or infusion). Anesthesia was mantained for up to 7 hours by subcutaneous infusion of pentobarbital sodium (adjusted to the anesthetic depth of the individual animal; about 24 mg/kg/h). Body temperature was monitored with a rectal probe thermometer, and temperature was maintained at 37° C. by means of a heated surgical plate. The rats were allowed to stabilize their blood levels after surgery for up to 2 hours, after which the test compound was injected intraperitoneally. Blood samples for glucose analysis (10 μl) were obtained from the tip of the tail every 15 minutes. For analysis of plasma lipids blood samples (0.3 ml) were obtained from the jugular vein either every 10 to 15 minutes for up to 2 hours, or every hour for up to 5 hours after compound administration. Standard enzymatic procedures were used to determine blood glucose (Bergmeyer, 1974)."}, "A1 and A2 receptors": {"system": "A1 and A2 receptors", "settings": "selectivity; cited from earlier work"}, "A2 receptor": {"system": "A2 receptor", "settings": "relative to NECA; cited from earlier work"}},
  "note": "pEC50: −log10 of the molar value.",
  "data": [
    {"smiles": "COC[C@H]1C[C@@H](n2cnc3c(N[C@H]4CCN(c5ccc(C(F)(F)F)cn5)C4)ncnc32)[C@H](O)[C@@H]1O", "note": "[Example 3, (1R,2S,3R,5R)-5-methoxymethyl-3-[6-[1-(5-trifluoromethylpyridin2-yl)pyrrolidin-3(S)-ylamino]-purin-9-yl]cyclopentane-1,2-diol]", "values": [
      {"measurement": "Insulin tolerance test, blood glucose, mean", "setting": "[1]; 1 mg/kg p.o. for 3 weeks (first group), 0 minutes after insulin", "result": 4.60},
      {"measurement": "Insulin tolerance test, blood glucose, mean", "setting": "[1]; 1 mg/kg p.o. for 3 weeks (first group), 60 minutes after insulin", "result": 1.96},
      {"measurement": "Insulin tolerance test, blood glucose, mean", "setting": "[1]; 1 mg/kg p.o. for 3 weeks (first group), 120 minutes after insulin", "result": 1.59},
      {"measurement": "Insulin tolerance test, blood glucose, mean", "setting": "[1]; 1 mg/kg p.o. for 3 weeks (first group), 180 minutes after insulin", "result": 1.72},
      {"measurement": "Insulin tolerance test, blood glucose, mean", "setting": "[1]; 1 mg/kg p.o. for 3 weeks (first group), 240 minutes after insulin", "result": 3.02},
      {"measurement": "Insulin tolerance test, blood glucose, mean", "setting": "[1]; 1 mg/kg p.o. for 3 weeks (first group), 300 minutes after insulin", "result": 5.13},
      {"measurement": "Insulin tolerance test, blood glucose, mean", "setting": "[1]; 1 mg/kg p.o. for 3 weeks (first group), 360 minutes after insulin", "result": 4.98},
      {"measurement": "Insulin tolerance test, blood glucose, mean", "setting": "[1]; 1 mg/kg p.o. for 3 weeks (first group), 420 minutes after insulin", "result": 4.04},
      {"measurement": "Insulin tolerance test, blood glucose, mean", "setting": "[1]; second group, (1 mg/kg p.o.), 3 weeks, 0 minutes after insulin", "result": 5.17},
      {"measurement": "Insulin tolerance test, blood glucose, mean", "setting": "[1]; second group, (1 mg/kg p.o.), 3 weeks, 60 minutes after insulin", "result": 1.99},
      {"measurement": "Insulin tolerance test, blood glucose, mean", "setting": "[1]; second group, (1 mg/kg p.o.), 3 weeks, 120 minutes after insulin", "result": 1.57},
      {"measurement": "Insulin tolerance test, blood glucose, mean", "setting": "[1]; second group, (1 mg/kg p.o.), 3 weeks, 180 minutes after insulin", "result": 1.44},
      {"measurement": "Insulin tolerance test, blood glucose, mean", "setting": "[1]; second group, (1 mg/kg p.o.), 3 weeks, 240 minutes after insulin", "result": 2.54},
      {"measurement": "Insulin tolerance test, blood glucose, mean", "setting": "[1]; second group, (1 mg/kg p.o.), 3 weeks, 300 minutes after insulin", "result": 4.35},
      {"measurement": "Insulin tolerance test, blood glucose, mean", "setting": "[1]; second group, (1 mg/kg p.o.), 3 weeks, 360 minutes after insulin", "result": 5.63},
      {"measurement": "Insulin tolerance test, blood glucose, mean", "setting": "[1]; second group, (1 mg/kg p.o.), 3 weeks, 420 minutes after insulin", "result": 6.09},
      {"measurement": "pEC50", "setting": "rat adipocytes", "result": 8.25},
      {"measurement": "melting point", "result": "166 to 168", "unit": "°C"},
      {"measurement": "plasma free fatty acids, mean", "setting": "[2]; 10 mg/kg i.p., 10 minutes", "result": 0.42},
      {"measurement": "plasma free fatty acids, mean", "setting": "[2]; 10 mg/kg i.p., 20 minutes", "result": 0.26},
      {"measurement": "plasma free fatty acids, mean", "setting": "[2]; 10 mg/kg i.p., 30 minutes", "result": 0.19},
      {"measurement": "plasma free fatty acids, mean", "setting": "[2]; 10 mg/kg i.p., 40 minutes", "result": 0.19},
      {"measurement": "plasma free fatty acids, mean", "setting": "[2]; 10 mg/kg i.p., 60 minutes", "result": 0.13},
      {"measurement": "plasma free fatty acids, mean", "setting": "[2]; 10 mg/kg i.p., −60 minutes", "result": 0.61},
      {"measurement": "plasma free fatty acids, mean", "setting": "[2]; 30 mg/kg i.p., 10 minutes", "result": 0.24},
      {"measurement": "plasma free fatty acids, mean", "setting": "[2]; 30 mg/kg i.p., 20 minutes", "result": 0.14},
      {"measurement": "plasma free fatty acids, mean", "setting": "[2]; 30 mg/kg i.p., 30 minutes", "result": 0.13},
      {"measurement": "plasma free fatty acids, mean", "setting": "[2]; 30 mg/kg i.p., 40 minutes", "result": 0.10},
      {"measurement": "plasma free fatty acids, mean", "setting": "[2]; 30 mg/kg i.p., 60 minutes", "result": 0.09},
      {"measurement": "plasma free fatty acids, mean", "setting": "[2]; 30 mg/kg i.p., −60 minutes", "result": 0.52}
    ]},
    {"smiles": "OC[C@H]1O[C@@H](n2cnc3c(NC4CCCC4)ncnc32)[C@H](O)[C@@H]1O", "note": "[CPA, Cyclopentyladenosine]", "values": [
      {"measurement": "A2/A1 ratio", "setting": "A1 and A2 receptors", "result": 780}
    ]},
    {"smiles": "Nc1nc(Nc2ccccc2)nc2c1ncn2[C@@H]1O[C@H](CO)[C@@H](O)[C@H]1O", "note": "[CV-1808]", "values": [
      {"measurement": "fold less potent than NECA in its affinity for the A2 receptor", "setting": "A2 receptor", "result": 10, "unit": "fold"},
      {"measurement": "A2/A1 ratio", "setting": "A1 and A2 receptors", "result": 0.19}
    ]}
  ]
}
